The values below come from patent US20070254951A1, “HIGH CONCENTRATION DINOTEFURAN FORMULATIONS” (priority 2006, published 2007).

The text on data set [1]: It is also desirable that the resulting formulation be stable. […] This is important because these conditions can be met in commerce. The crystallization would reduce the amount of insecticide in solution and reduce the efficacy of the solution applied to the animal.
For data set [2] the following is noted: formulation of Example 9. The source says:
The formulation of Example 9 was stored under variable temperatures up to 2 years to determine the stability of dinotefuran in solution.

Structures are written as SMILES. Read-outs that look alike come from different tables or passages of the source.

Regarding `CNC(=N[N+](=O)[O-])NCC1CCOC1` (stereo not drawn) [Dinotefuran, 1-{(tetrahydro-3-furanyl)methyl}-2-nitro-3-methylguanidine], the “increase in concentration by including methoprene” value in data set [1] (methoprene at about 0.8% and below, compared to a similar formulation without methoprene) is about 50%. The “increase in concentration achievable by including pyriproxyfen at low levels” value in data set [1] (phenyl methanol formulation, no crystal formation at 0° F. during a 1 month period) is given as about 50%. Also, the “dinotefuran concentration that will crystallize at 0° F. within a few days” value in data set [1] (typically, 0° F.) is listed as “over 8%”. For the same compound, the “Dinotefuran concentration in solution (average)” value in data set [2] (40° F., 1 Mo) is reported as 15.03 percent by weight; in data set [2] (110° F., 3 Mo), 15.33 percent by weight; in data set [2] (130° F., 1 Mo), 15.22 percent by weight; in data set [2] (F/T, 1 Mo), 15.05 percent by weight; in data set [2] (INITIAL), 15.43 percent by weight; in data set [2] (RT (25° C.), 3 Mo), 15.17 percent by weight. Also, the “Dinotefuran concentration in solution (average)” value in data set [2] (RT, 1 Yr) came to 15.24 percent by weight; in data set [2] (RT, 2 Yrs) it was 15.735 percent by weight; in data set [2] (RT, 6 Mo) it was 15.06 percent by weight.
